Reference: patent US20180340012A1, “METHODS AND CO[…] TO IMPROVING PROPERTIES OF PHARMACOLOGICAL AGENTS TARGETING NERVOUS SYSTEM” (University of Utah Research Foundation, priority 2006, published 2018)
Entries after “also recorded” stand apart in the source; their conditions may differ.

Key:
6 Hz limbic seizures = test: 6 Hz limbic (psychomotor) seizure test; type: in vivo, CF-1 mice
Excerpt: Mice not displaying limbic seizures were considered protected.

sound-induced seizures = test: Frings audiogenic seizure-susceptible mouse model; type: in vivo
Method: The two modified galanin analogs (GAL-BBB1 and GAL-BBB2) were administered i.p. to a group of Frings audiogenic seizure susceptible mice in a dose of 4 mg/kg. At various times after administration (i.e., 15, 30, 60, 120, and 240 min) each mouse was placed into a cylindrical test chamber fitted with an audio transducer and challenged with a high-intensity sound stimulus (110 dB, 11 KHz for 20 sec). Animals not displaying tonic hind-limb extension were considered protected. […] In a subsequent study, anticonvulsant efficacy was quantitated at the time to peak effect (i.e., 1 h) in a dose-response study.
The ability of individual modified analogs to prevent seizures induced by sound in the AGS-susceptible Frings mouse model can be assessed at the time of peak effect (White et al., 1992). For this test, individual mice are placed into a plexiglass cylinder (diameter, 15 cm; height, 18 cm) fitted with an audio transducer (Model AS-ZC; FET Research and Development, Salt Lake City, Utah), and exposed to a sound stimulus of 110 decibels (11 KHz) delivered for 20 seconds. Sound-induced seizures are characterized by wild running followed by loss of righting reflex with forelimb and hindlimb tonic extension. Mice not displaying hindlimb tonic extension are considered protected.
At various times after administration (i.e., 15, 30, 60, 120, and 240 min) each mouse was placed into a cylindrical test chamber fitted with an audio transducer and challenged with a high-intensity sound stimulus (110 dB, 11 KHz for 20 sec).

Sar-Trp-Thr-Leu-Asn-Ser-Ala-Gly-Tyr-Leu-Leu-Gly-Pro-Lys-Lys-(Lys-palm)-Lys-NH2 [NAX 5055]
activity in pharmaco-resistant seizure model (6 Hz limbic seizures; 4 mg/kg): active | % Protection at 1 hour (6 Hz limbic seizures; 4 mg/kg, i.p., 1 h, model not printed at tables, ED50s of same analogs called 6 Hz model): 100% | % Protection at 2 hours (6 Hz limbic seizures; 4 mg/kg, i.p., 2 h): 100% | % Protection at 4 hours (6 Hz limbic seizures; 4 mg/kg, i.p., 4 h): 0% | potency and efficacy compared with native peptide (6 Hz limbic seizures; 6 Hz (32 mA) test): more potent and more efficacious | ED50 in the 6 Hz model (6 Hz limbic seizures; i.p.): 0.8 mg/kg | dose in parentheses in Table 14 (ED50) (6 Hz limbic seizures; i.p., not labelled in table): 0.8 mg/kg | ED50 following i.c.v. administration (6 Hz limbic seizures; intracerebroventricular, 6 Hz (32 mA) test, FIG. 22): 0.07 nmol | anticonvulsant activity following subcutaneous administration (6 Hz limbic seizures; s.c., 32 mA, 6 Hz, 60 min after injection): preserved; also recorded: retained | blocking sound-induced seizures (sound-induced seizures; 4 mg/kg i.p., one hour after administration): effective | duration of anticonvulsant effect (sound-induced seizures; 4 mg/kg, i.p.): between two and four hours | onset of anticonvulsant effect (sound-induced seizures; 4 mg/kg, i.p.): ≤ 30 min | anticonvulsant ED50 (approximate) (sound-induced seizures; given i.p., refers to Example 2): ~3 mg/kg | median effective dose ED50 (95% confidence intervals) (sound-induced seizures; i.p., at time to peak effect 1 h, Probit analysis): 3.2 (2.3−6.1) mg/kg
